Test results from ChEMBL document CHEMBL1145042, “Understanding the structure-activity relationship of the human ether-a-go-go-related gene cardiac K+ channel. A model for bad behavior” (J Med Chem, 2003).

Test system: Bacteria
Assay: Bacterial minimum inhibitory concentration
Assay type: functional

SMILES: Cc1c(F)c(N2CCNC(C)C2)cc2c1c(=O)c(C(=O)O)cn2C1CC1 (stereo unspecified) [GREPAFLOXACIN]
- MIC: < 2.4 µM
